Reference: patent publication US20240207202A1, “COMBINATION THERAPIES TARGETING MITOCHONDRIAL BIOGENESIS FOR CANCER THERAPY” (The Wistar Institute of Anatomy and Biology, priority 2015, published 2024)

Experiments:
[1] = test system: mitochondrial mass; assay: Mitochondrial mass by MitoTracker Red; assay type: cell-based, human; conditions: WM9, 72 h, Gamitrinib 1 μM combined with MAPK pathway inhibitors
Method: (§1) Adherent melanoma cells were harvested with 0.05% Trypsin-EDTA and were washed once with 1×DPBS. Cells were labeled with CellTrace™ Violet according to the manufacturer's protocol and were allowed to adhere to tissue culture plates overnight following the drug treatment. At indicated time points following the drug treatment, floating and adherent cells were pooled, washed with Hank's Buffered Salt Solution (HBSS) and then stained with CellROX Deep Red at 2.5 μM or MitoTracer Red at 0.25 μM for 1 h in a 37° C. humidified incubator supplied with 5% CO2. Cells were then pelleted, washed with DPBS, and stained with PSVue® 643 at 5 μM diluted in TES buffer for 5 min in the dark. Cells were then immediately subjected to FACS analysis using a BD LSR II flow cytometer and at least 5,000 cells per sample were acquired.

[2] = test system: BRAF-mutated resistant melanoma cell lines; assay: Induction of apoptosis and cell death by PSVue 643 staining in acquired drug resistant melanoma cell lines; assay type: cell-based, human
Method: as §1
Labeling cells with Propidium Iodide and PSVue—Following centrifugation, cells were resuspended in 0.1 ml 1×PBS, co-stained with propidium iodide at 1 μg/ml and PSVue® 643 at 5 μM, and then stained with PSVue® 643 at 5 μM alone. Cell suspensions were kept in the dark at room temperature for 5 min. 0.2 ml 1×PBS supplemented with 10% FBS was added to each cell suspension and cells were immediately analyzed by BD LSRII.
Separation of live cells from dead cells including early apoptotic cells—Based on the fluorescence of PSVue 643, cells are separated into 2 subpopulations, live cells (PSVue 643Neg) and dead cells including early apoptotic cells (PSVue 643Pos).

[3] = test system: WM4265-2 cells; assay: Tumor volume of WM4265-2 xenografts; assay type: in vivo, mice; conditions: WM4265-2 xenografts (immunotherapy-progressed patient PDX line); Gamitrinib 10 mg/kg
Method: Mice were xenografted with WM4265-2 cells until tumors were established and then treated with Gamitrinib (10 mg/kg).

[4] = test system: ATP production; assay: ATP production in WM9 cells; assay type: cell-based, human; conditions: WM9, 72 h, Gamitrinib combined with PLX4720 10 μM
Method: Cells were seeded into Black Plate, Clear Bottom 96 Well Assay Plates (Corning Inc., cat. #3603) at a density of 5,000 cells/well. Immediately following the drug treatment, culture media were removed. Cells in each well were incubated with a mixture of reagents containing 50 μl DPBS, 50 μl reconstituted CellTiter-Glo® Assay and 0.5 μl CyQUANT for 10 min in the dark. Both ATP luminescence and CyQUANT fluorescence were recorded with a BioTek Multi-Mode Microplate Reader. The ATP production per cell was calculated as the ratio of ATP luminescence over CyQUANT fluorescence.

[5] = test system: WM9 melanoma cells; assay: Induction of apoptosis and cell death by PSVue 643 staining in WM9 melanoma cells; assay type: cell-based, human; conditions: WM9, 72 h
Method: Adherent melanoma cells were harvested with 0.05% Trypsin-EDTA and were washed once with 1×DPBS. Cells were labeled with CellTrace™ Violet according to the manufacturer's protocol and were allowed to adhere to tissue culture plates overnight following the drug treatment. […] Cells were then immediately subjected to FACS analysis using a BD LSR II flow cytometer and at least 5,000 cells per sample were acquired.
Cell suspensions were kept in the dark at room temperature for 5 min. 0.2 ml 1×PBS supplemented with 10% FBS was added to each cell suspension and cells were immediately analyzed by BD LSRII.
Briefly, autophagic flux was assessed by FACS analysis of WM9 cells expressing the mCherry-eGFPLC3B construct that were transfected with the indicated siRNAs targeting autophagy and ER stress response and treated for 72 h with DMSO or the combination of PLX4720 at 10 μM and PD0325901 at 1 μM. The data represent the average of 2 biological replicates. […] Autophagic flux was assessed by FACS analysis of WM9 cells expressing the mCherry-eGFPLC3B construct treated for 72 h with Gamitrinib at 1 μM or Spautin-1 at 10 μM in combination with PLX4720 at 10 μM/PD0325901 at 1 μM. Cells treated with DMSO were used as the control for setting up the gate.

[6] = test system: LC3B-II, phospho-S6, phospho-AMPKα; assay: RPPA and immunoblotting of autophagy and metabolic stress markers in WM9 cells; assay type: cell-based, human
Source text: The raw data of gene expression microarrays generated from Illumina Chips were normalized, background-corrected and summarized using the R package “lumi” (Du et al., 2008). Probes below background level (detection P-value <0.01) were excluded and differential expression was identified with Bayes-adjusted variance analysis using the Bioconductor Limma package. To reduce false positives, the unexpressed probes were removed. The R package “limma” (Smyth, 2004, 2005) was employed for gene differential expression analysis, followed by multiple test correction by the Benjamini and Hochberg procedure (Benjamini and Hochberg, 1995). […] We also conducted GSEA as previously reported (Subramanian et al., 2005). For GSEA, we analyzed gene sets obtained from the Molecular Signatures Database (broadinstitute.org/gsea/msigdb/). The same differential expression analysis method was applied to RPPA data.
(§2) Cells were washed with ice-cold PBS containing 100 μM Na3VO4 and scraped off culture dishes. After centrifugation, cell pellets were lysed in buffer containing 10 mM Tris-HCl, pH 7.8, 150 mM NaCl, 1 mM EDTA, 1% Nonidet P-40, 1 mM Na3VO4 and protease inhibitors (Roche complete protease inhibitor tablets). Lysates were cleared by micro-centrifugation and protein concentrations were determined with Protein Assay Dye Reagent Concentrate (Bio-Rad). […]

[7] = test system: HKI, HKII, PDHE1, PDK1, PDK2, LDHA, PKM1, GLUT1 and GLUT3; assay: Expression of glycolysis regulators in WM9 cells (qRT-PCR, immunoblot); assay type: cell-based, human; conditions: WM9, Gamitrinib combined with PLX4720
Method: One μg total mRNA was reverse transcribed using a Maxima First Strand cDNA Synthesis Kit for qRT-PCR (Thermo Fisher). Fast SYBR® Green Master Mix (Life Technologies) was used with cDNA template and primers to evaluate the expression of target genes and GAPDH. Primers used were purchased from Integrated DNA Technologies. Amplifications were performed using an Applied Biosystems® 7500 Real-Time PCR System (Life Technologies). All experiments were performed in triplicate. Expression ratios of controls were normalized to 1. Please see Extended Experimental Procedures for the list of PCR primer sequences.
as §2, with “(Bio-Rad). For western blots, 25 μg of each lysate were run on 15-well 10% or 12% SDS-PAGE gels and transferred onto nitrocellulose membranes using a dye fast Trans-BlotR Turbo™ transfer system (Bio-Rad).” for “(Bio-Rad).”

Gamitrinib
mitochondrial mass [1]: decreases
cell death in combination therapy resistant (CR) cell line ([2]; 1 CR cell line (WM9 CR), Gamitrinib 1 and 2.5 μM, 48 h): significantly induced cell death
resistant cell lines in which apoptosis and cell death was significantly induced ([2]; 23 resistant cell lines, 2.5 μM Gamitrinib, 72 hours): 18 of 23
BRAF inhibitor resistant (BR) cell lines in which cell death was significantly induced ([2]; BR cell lines, PLX4720 10 μM plus Gamitrinib 2.5 μM, 48 h): 7 out of 9
tumor growth [3]: significantly inhibited tumor growth
ATP production [4]: significantly decreased the ATP production
induction of apoptosis and cell death ([5]; Gamitrinib 1 or 2.5 μM vs 0 or 0.5 μM, with PLX4720 10 μM and PD0325901 1 μM): more remarkable induction of apoptosis and cell death
apoptosis and cell death, compared with other inhibitors of the drug screen ([5]; titrated doses combined with MAPK pathway inhibitors (PLX4720 10 μM, PD0325901 1 μM)): greater increase in apoptosis and cell death
LC3B-II, phospho-S6 and phospho-AMPKα [6]: down-regulated LC3B-II and phospho-S6 and up-regulated phospho-AMPKα
expression of key regulators of aerobic glycolysis, mRNA and protein [7]: substantially down-regulated
